Assay results taken from patent US10106783B2, “HCV culture systems and direct-acting antiviral sensitivity” (Hvidovre Hospital, priority 2013, dated 2018).

Each compound was assayed on J6/JFH1 (HCV genotype 2a recombinant) (assay: High-throughput DAA treatment assay of infected Huh7.5 cells, J6/JFH1 virus). Conditions: Hepatitis C virus, first-passage 2a J6/JFH1 stock, read-out: EC50 against J6/JFH1.
Type: cell-based
Protocol: (§1) Huh7.5 cells in 96-well culture plates were infected with 5′UTR-NS5A specific genotype(isolate) recombinants. For details on the 5-5A virus stocks see FIG. 3. J6/JFH1 was a first-passage stock with no mutations in the ORF. Cultures were treated with seven protease inhibitors and the NS5A inhibitor daclatasvir. Values are means of triplicates in the experiment with ±SEM.
(§2) HCV DAAs were purchased from Acme Bioscience and dissolved in dimethyl sulfoxide (Sigma). High throughput treatment assays have been previously established. Concentration-response curves, EC50 values, and 95% confidence interval were calculated in GraphPad Prism 5 as described. Cytotoxicity assays to determine the non-cytotoxic dose range of the anti-HCV drugs were performed.
(§3) Since no mutations appeared in the NS3 protease region in first-passage 5-5A recombinants, these culture viruses could be ideal models for studying the efficacy of PIs in a genotype-specific manner. We thus generated virus stocks from first-passage 1a(H77 and TN) and second-passage 3a(S52), 4a(ED43), 5a(SA13), and 6a(HK6a) 5-5A viruses (FIG. 3) for PI treatment experiments. Additionally, we generated a first-passage stock of 2a J6/JFH1. We confirmed that virus stocks used for treatment were without NS3 protease mutations (FIGS. 5-9). We tested virus sensitivity to the most advanced PIs: telaprevir (VX-950), boceprevir (SCH503034), asunaprevir (BMS-650032), simeprevir (TMC435350), vaniprevir (MK-7009), faldaprevir (BI201335), and MK-5172. […] The median effective concentration (EC50) representing the efficacy of drugs against the treated viruses was calculated from the concentration-response curves (FIGS. 2, 4 and 10). For a given inhibitor, EC50 fold-differences relative to J6/JFH1 were calculated for each genotype recombinant and used to describe whether a recombinant was more sensitive (fold-difference <1) or resistant (fold-difference >1) than J6/JFH1.
In the case of CC[C@@H]1C[C@]1(NC(=O)[C@@H]1C[C@@H]2CN1C(=O)[C@H](C(C)(C)C)NC(=O)OCC(C)(C)CCCCc1cccc3c1CN(C3)C(=O)O2)C(=O)NS(=O)(=O)C1CC1 [vaniprevir], the EC50 is reported as 88 nM.

These compounds were tested on 1a(TN) 5'UTR-NS5A recombinant virus (assay: High-throughput DAA treatment assay of infected Huh7.5 cells, 1a(TN)5-5A virus). Conditions: 1a(TN)5-5A virus more sensitive than J6/JFH1.
Type: cell-based, hepatitis C virus
Protocol: as §1, §2, §3
For C=C[C@@H]1C[C@]1(NC(=O)[C@@H]1C[C@@H](Oc2cc(-c3csc(NC(=O)C(C)C)n3)nc3c(Br)c(OC)ccc23)CN1C(=O)[C@@H](NC(=O)OC1CCCC1)C(C)(C)C)C(=O)O [faldaprevir], the “EC50 fold-difference relative to J6/JFH1, more sensitive” value was roughly 4 fold.
In the case of CC[C@@H]1C[C@]1(NC(=O)[C@@H]1C[C@@H]2CN1C(=O)[C@H](C(C)(C)C)NC(=O)OCC(C)(C)CCCCc1cccc3c1CN(C3)C(=O)O2)C(=O)NS(=O)(=O)C1CC1 [vaniprevir], the “EC50 fold-difference relative to J6/JFH1, more sensitive” value is reported as 3-6 fold.

Same assay, conditions: 1a(TN)5-5A virus, difference in sensitivity compared to J6/JFH1
For C=C[C@@H]1C[C@]1(NC(=O)[C@@H]1C[C@@H]2CN1C(=O)[C@H](C(C)(C)C)NC(=O)O[C@@H]1C[C@H]1CCCCCc1nc3ccc(OC)cc3nc1O2)C(=O)NS(=O)(=O)C1CC1 [MK-5172], the “EC50 fold-difference from J6/JFH1” value was “less than 2 fold”.
In the case of COC(=O)N[C@H](C(=O)N1CCC[C@H]1c1nc(-c2ccc(-c3ccc(-c4c[nH]c([C@@H]5CCCN5C(=O)[C@@H](NC(=O)OC)C(C)C)n4)cc3)cc2)c[nH]1)C(C)C [daclatasvir], the “EC50 fold-difference from J6/JFH1” value is reported as less than 3 fold.

These compounds were tested on 5a(SA13) 5'UTR-NS5A recombinant virus (assay: High-throughput DAA treatment assay of infected Huh7.5 cells, 5a(SA13)5-5A virus). Conditions: 5a(SA13)5-5A virus more sensitive than J6/JFH1.
Type: cell-based, hepatitis C virus
Protocol: as §1, §2, §3
With C=C[C@@H]1C[C@]1(NC(=O)[C@@H]1C[C@@H](Oc2cc(-c3csc(NC(=O)C(C)C)n3)nc3c(Br)c(OC)ccc23)CN1C(=O)[C@@H](NC(=O)OC1CCCC1)C(C)(C)C)C(=O)O [faldaprevir] the “EC50 fold-difference relative to J6/JFH1, more sensitive” value was roughly 10 fold.
CC[C@@H]1C[C@]1(NC(=O)[C@@H]1C[C@@H]2CN1C(=O)[C@H](C(C)(C)C)NC(=O)OCC(C)(C)CCCCc1cccc3c1CN(C3)C(=O)O2)C(=O)NS(=O)(=O)C1CC1 [vaniprevir] was tested, and the “EC50 fold-difference relative to J6/JFH1, more sensitive” value was 3-6 fold.

Same assay, conditions: 5a(SA13)5-5A virus, difference in sensitivity compared to J6/JFH1
For C=C[C@@H]1C[C@]1(NC(=O)[C@@H]1C[C@@H]2CN1C(=O)[C@H](C(C)(C)C)NC(=O)O[C@@H]1C[C@H]1CCCCCc1nc3ccc(OC)cc3nc1O2)C(=O)NS(=O)(=O)C1CC1 [MK-5172], the “EC50 fold-difference from J6/JFH1” value was “less than 2 fold”.
COC(=O)N[C@H](C(=O)N1CCC[C@H]1c1nc(-c2ccc(-c3ccc(-c4c[nH]c([C@@H]5CCCN5C(=O)[C@@H](NC(=O)OC)C(C)C)n4)cc3)cc2)c[nH]1)C(C)C [daclatasvir] was tested, and the “EC50 fold-difference from J6/JFH1” value was less than 3 fold.

What follows are compounds tested on HCV genotype 1-6 recombinant viruses (assay: High-throughput DAA treatment assay of infected Huh7.5 cells, whole panel of genotype 1-6 recombinant viruses). Conditions: all genotype recombinant viruses.
Type: cell-based, hepatitis C virus
Protocol: as §1, §2, §3
In the case of C=C[C@@H]1C[C@]1(NC(=O)[C@@H]1C[C@@H]2CN1C(=O)[C@H](C(C)(C)C)NC(=O)O[C@@H]1C[C@H]1CCCCCc1nc3ccc(OC)cc3nc1O2)C(=O)NS(=O)(=O)C1CC1 [MK-5172], the “Potency relative to the other tested DAAs” value is reported as “the most potent PI with broad activity against HCV genotypes 1-6”.

Same assay, conditions: infected Huh7.5 cells, concentration-response
With C=C[C@@H]1C[C@]1(NC(=O)[C@@H]1C[C@@H]2CN1C(=O)[C@H](C(C)(C)C)NC(=O)O[C@@H]1C[C@H]1CCCCCc1nc3ccc(OC)cc3nc1O2)C(=O)NS(=O)(=O)C1CC1 [MK-5172] the “Inhibition of genotype 1-6 recombinant viruses” value (shortened to “Inhibition”) was “concentration-dependently inhibited”.
In the case of C=C[C@@H]1C[C@]1(NC(=O)[C@@H]1C[C@@H](Oc2cc(-c3csc(NC(=O)C(C)C)n3)nc3c(Br)c(OC)ccc23)CN1C(=O)[C@@H](NC(=O)OC1CCCC1)C(C)(C)C)C(=O)O [faldaprevir], the “Inhibition” value is reported as “concentration-dependently inhibited”.
In the case of CC[C@@H]1C[C@]1(NC(=O)[C@@H]1C[C@@H]2CN1C(=O)[C@H](C(C)(C)C)NC(=O)OCC(C)(C)CCCCc1cccc3c1CN(C3)C(=O)O2)C(=O)NS(=O)(=O)C1CC1 [vaniprevir], the “Inhibition” value is reported as “concentration-dependently inhibited”.

What follows are compounds tested on 6a(HK6a) 5'UTR-NS5A recombinant virus (assay: High-throughput DAA treatment assay of infected Huh7.5 cells, 6a(HK6a)5-5A virus). Conditions: 6a(HK6a)5-5A virus more sensitive than J6/JFH1.
Type: cell-based, hepatitis C virus
Protocol: as §1, §2, §3
In the case of C=C[C@@H]1C[C@]1(NC(=O)[C@@H]1C[C@@H](Oc2cc(-c3csc(NC(=O)C(C)C)n3)nc3c(Br)c(OC)ccc23)CN1C(=O)[C@@H](NC(=O)OC1CCCC1)C(C)(C)C)C(=O)O [faldaprevir], the “EC50 fold-difference relative to J6/JFH1, more sensitive” value is reported as roughly 4 fold.
In the case of CC[C@@H]1C[C@]1(NC(=O)[C@@H]1C[C@@H]2CN1C(=O)[C@H](C(C)(C)C)NC(=O)OCC(C)(C)CCCCc1cccc3c1CN(C3)C(=O)O2)C(=O)NS(=O)(=O)C1CC1 [vaniprevir], the “EC50 fold-difference relative to J6/JFH1, more sensitive” value is reported as 3-6 fold.

Same assay, conditions: 6a(HK6a)5-5A virus, difference in sensitivity compared to J6/JFH1
With C=C[C@@H]1C[C@]1(NC(=O)[C@@H]1C[C@@H]2CN1C(=O)[C@H](C(C)(C)C)NC(=O)O[C@@H]1C[C@H]1CCCCCc1nc3ccc(OC)cc3nc1O2)C(=O)NS(=O)(=O)C1CC1 [MK-5172] the “EC50 fold-difference from J6/JFH1” value was “less than 2 fold”.
In the case of COC(=O)N[C@H](C(=O)N1CCC[C@H]1c1nc(-c2ccc(-c3ccc(-c4c[nH]c([C@@H]5CCCN5C(=O)[C@@H](NC(=O)OC)C(C)C)n4)cc3)cc2)c[nH]1)C(C)C [daclatasvir], the “EC50 fold-difference from J6/JFH1” value is reported as less than 3 fold.

These compounds were tested on 4a(ED43) 5'UTR-NS5A recombinant virus (assay: High-throughput DAA treatment assay of infected Huh7.5 cells, 4a(ED43)5-5A virus). Conditions: 4a(ED43)5-5A virus more sensitive than J6/JFH1.
Type: cell-based, hepatitis C virus
Protocol: as §1, §2, §3
In the case of COC(=O)N[C@H](C(=O)N1CCC[C@H]1c1nc(-c2ccc(-c3ccc(-c4c[nH]c([C@@H]5CCCN5C(=O)[C@@H](NC(=O)OC)C(C)C)n4)cc3)cc2)c[nH]1)C(C)C [daclatasvir], the “EC50 fold-difference relative to J6/JFH1, more sensitive” value is reported as roughly 5 fold.
For C=C[C@@H]1C[C@]1(NC(=O)[C@@H]1C[C@@H](Oc2cc(-c3csc(NC(=O)C(C)C)n3)nc3c(Br)c(OC)ccc23)CN1C(=O)[C@@H](NC(=O)OC1CCCC1)C(C)(C)C)C(=O)O [faldaprevir], the “EC50 fold-difference relative to J6/JFH1, more sensitive” value was roughly 44 fold.
CC[C@@H]1C[C@]1(NC(=O)[C@@H]1C[C@@H]2CN1C(=O)[C@H](C(C)(C)C)NC(=O)OCC(C)(C)CCCCc1cccc3c1CN(C3)C(=O)O2)C(=O)NS(=O)(=O)C1CC1 [vaniprevir] was tested, and the “EC50 fold-difference relative to J6/JFH1, more sensitive” value was roughly 10 fold.

Same assay, conditions: 4a(ED43)5-5A virus, difference in sensitivity compared to J6/JFH1
In the case of C=C[C@@H]1C[C@]1(NC(=O)[C@@H]1C[C@@H]2CN1C(=O)[C@H](C(C)(C)C)NC(=O)O[C@@H]1C[C@H]1CCCCCc1nc3ccc(OC)cc3nc1O2)C(=O)NS(=O)(=O)C1CC1 [MK-5172], the “EC50 fold-difference from J6/JFH1” value is reported as “less than 2 fold”.

What follows are compounds tested on 3a(S52) 5'UTR-NS5A recombinant virus (assay: High-throughput DAA treatment assay of infected Huh7.5 cells, 3a(S52)5-5A virus). Conditions: 3a(S52)5-5A virus more resistant (less sensitive) than J6/JFH1.
Type: cell-based, hepatitis C virus
Protocol: as §1, §2, §3
In the case of C=C[C@@H]1C[C@]1(NC(=O)[C@@H]1C[C@@H]2CN1C(=O)[C@H](C(C)(C)C)NC(=O)O[C@@H]1C[C@H]1CCCCCc1nc3ccc(OC)cc3nc1O2)C(=O)NS(=O)(=O)C1CC1 [MK-5172], the “EC50 fold-difference relative to J6/JFH1, more resistant” value is reported as roughly 13 fold.
With COC(=O)N[C@H](C(=O)N1CCC[C@H]1c1nc(-c2ccc(-c3ccc(-c4c[nH]c([C@@H]5CCCN5C(=O)[C@@H](NC(=O)OC)C(C)C)n4)cc3)cc2)c[nH]1)C(C)C [daclatasvir] the “EC50 fold-difference relative to J6/JFH1, more resistant” value was roughly 6 fold.
C=C[C@@H]1C[C@]1(NC(=O)[C@@H]1C[C@@H](Oc2cc(-c3csc(NC(=O)C(C)C)n3)nc3c(Br)c(OC)ccc23)CN1C(=O)[C@@H](NC(=O)OC1CCCC1)C(C)(C)C)C(=O)O [faldaprevir] was tested, and the “EC50 fold-difference relative to J6/JFH1, more resistant” value was roughly 17 fold.
In the case of CC[C@@H]1C[C@]1(NC(=O)[C@@H]1C[C@@H]2CN1C(=O)[C@H](C(C)(C)C)NC(=O)OCC(C)(C)CCCCc1cccc3c1CN(C3)C(=O)O2)C(=O)NS(=O)(=O)C1CC1 [vaniprevir], the “EC50 fold-difference relative to J6/JFH1, more resistant” value is reported as roughly 22 fold.

What follows are compounds tested on 1a(H77) 5'UTR-NS5A recombinant virus (assay: High-throughput DAA treatment assay of infected Huh7.5 cells, 1a(H77)5-5A virus). Conditions: 1a(H77)5-5A virus more sensitive than J6/JFH1.
Type: cell-based, hepatitis C virus
Protocol: as §1, §2, §3
In the case of C=C[C@@H]1C[C@]1(NC(=O)[C@@H]1C[C@@H](Oc2cc(-c3csc(NC(=O)C(C)C)n3)nc3c(Br)c(OC)ccc23)CN1C(=O)[C@@H](NC(=O)OC1CCCC1)C(C)(C)C)C(=O)O [faldaprevir], the “EC50 fold-difference relative to J6/JFH1, more sensitive” value is reported as roughly 12 fold.
For CC[C@@H]1C[C@]1(NC(=O)[C@@H]1C[C@@H]2CN1C(=O)[C@H](C(C)(C)C)NC(=O)OCC(C)(C)CCCCc1cccc3c1CN(C3)C(=O)O2)C(=O)NS(=O)(=O)C1CC1 [vaniprevir], the “EC50 fold-difference relative to J6/JFH1, more sensitive” value was 3-6 fold.

Same assay, conditions: 1a(H77)5-5A virus, difference in sensitivity compared to J6/JFH1
For C=C[C@@H]1C[C@]1(NC(=O)[C@@H]1C[C@@H]2CN1C(=O)[C@H](C(C)(C)C)NC(=O)O[C@@H]1C[C@H]1CCCCCc1nc3ccc(OC)cc3nc1O2)C(=O)NS(=O)(=O)C1CC1 [MK-5172], the “EC50 fold-difference from J6/JFH1” value was “less than 2 fold”.
COC(=O)N[C@H](C(=O)N1CCC[C@H]1c1nc(-c2ccc(-c3ccc(-c4c[nH]c([C@@H]5CCCN5C(=O)[C@@H](NC(=O)OC)C(C)C)n4)cc3)cc2)c[nH]1)C(C)C [daclatasvir] was tested, and the “EC50 fold-difference from J6/JFH1” value was less than 3 fold.
